Measured values from patent publication EP0144809A2, “Complex platinum compounds of substituted 5,8-dihydroxy-1,4 naphtoquinones, process for their preparation and their use” (NATEC Institut für naturwissenschaftlich- technische …, priority 1983, dated 1985).

Test system: Ehrlich Ascites Tumor
Assay: Standard test with Ehrlich ascites tumor in ICR mice (antitumor activity)
Format: in vivo, ICR-Mäusen
Conditions: Dose 6 mg Pt-Komplex pro kg, intraperitoneal on day 1 and day 6; Cure = animals that survived longer than 60 days; two groups (20 mice) for the control
From the text: Zur Ermittlung der antikarzinogenen Aktivität der erfindungsgemäßen Platinkomplexverbindungen wurde der Standardtest mit dem Ehrlich Ascites Tumor an ICR-Mäusen angewendet. […] Die Tumorzellen sowie die Platinkomplexverbindungen wurden am Tag Null bzw. am 1. und 6. Tag intraperitonal injiziert. Die Resultate wurden in der nachstehenden Tabelle II zusammengestellt.
Der Terminus "Cure" wurde vom National Cancer Institute, USA, übernommen und bedeutet, wieviele Tiere länger als 60 Tage überlebt haben. Aus den Resultaten geht deutlich hervor, daß die erfindungsgemäßen Platinkomplexverbindungen gegenüber den bekannten Antitumormitteln der Vergleichsbeispiele 1 und 7 eine mindestens gleich gute, meist sogar deutlich bessere Antitumorwirkung zeigen.

For N.N.[Cl][Pt][Cl] [Positive Kontrolle, cis-Dichloro-diamino-platin(II)], the “Anzahl der "Cures" pro Tiergruppe” value was 4.
